Experimental data published in patent publication US11479563B2, “Biphenyl compound or salt thereof” (TAIHO PHARMACEUTICAL CO., LTD., priority 2017, dated 2022).
Structures can show the parent of a compound that is named as a salt. Where two headings read alike, the source gives them in different places.

How the values were obtained:
[1] = tested on: NCI-H1417 cells (human small-cell lung cancer cell lines); experiment: cells; conditions: NCI-H1417, read-out: Cell-Growth Inhibition Test: NCI-H1417 Cells IC50 (nM);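 further: growth of NCI-H1417 cells over 10 days at 37 °C, read as viable-cell luminescence by CellTiter-Glo 2.0, expressed as % of DMSO-only control wells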
Description: (§1) Under the following conditions, an in vitro cell-growth inhibition test was performed with respect to HEL cells (human acute myelocytic leukemia cell lines), NCI-H1417 cells (human small-cell lung cancer cell lines), and NCI-H146 cells (human small-cell lung cancer cell lines).
(§2) The cells with the compound of the present invention or with dimethylsulfoxide alone were cultured at 37° C. in a 5% carbon-dioxide-containing incubator for 5 days (HEL cells) or 10 days (NCI-H1417 cells and NCI-H146 cells). After culture, the plate was allowed to stand at room temperature for 30 minutes, and 100 μL of the supernatant was removed from each well to leave 100 μL of the cell culture solution. To each well containing the remaining 100 μL of the cell culture solution, the same amount of CellTiter-Glo 2.0 Assay (Promega, Cat #: G9242) was added. The microplate was shaken with a plate mixer for 1 minute and then allowed to stand in a dark place for 10 minutes. Thereafter, the luminescence intensity of viable cells in each well was measured using a microplate reader (PerkinElmer, EnSpire). […] Cell growth rate (%)=T/C×100 T: The luminescence intensity in a well to which the compound of the present invention was added (count per second) C: The luminescence intensity in a well to which dimethylsulfoxide alone was added (count per second)

[2] = tested on: NCI-H146 cells (human small-cell lung cancer cell lines); experiment: Cell-growth inhibition test: NCI-H146 cells; assay type: cell-based; conditions: Homo sapiens
How it was run: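 NCI-H146 small-cell lung cancer cells were cultured with compound or DMSO for 10 days at 37°C, 5% CO2. Viability read by CellTiter-Glo luminescence; growth rate (%) = treated/DMSO luminescence × 100.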

human LSD1 protein = biological target: T1, human LSD1 protein (Homo sapiens, UniProt O60341); experiment: Measurement of LSD1 inhibitory activity (in vitro); assay type: biochemical
T1 construct: purchased Abcam ab80379
Description: To measure the inhibitory activity, first, the compound of the present invention was serially diluted in dimethylsulfoxide (DMSO). Sequentially, the solution of the compound of the present invention in DMSO (final concentration of DMSO: 5%) and human LSD1 protein (Abcam, ab80379) were added to a reaction buffer (25 mM Tris-HCl (pH 7.5), 50 mM KCl, 2 mM CHAPS, 1 mM DTT, 0.02% BSA). The mixture was preincubated at 25° C. for 30 minutes. […] Tranylcypromine (final concentration: 3 mM) was then added thereto to terminate the reaction.

[3] = tested on: HEL cells (human acute myelocytic leukemia cell lines); experiment: cells; conditions: read-out: Cell-Growth Inhibition Test: HEL Cells IC50 (nM);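 further: viable cell count by CellTiter-Glo 2.0 luminescence after 5 days of culture at 37 °C, growth expressed relative to DMSO-only wells as 100%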
Description: as §1, §2

[4] = NCI-H146, read-out: Cell-Growth Inhibition Test: NCI-H146 Cells IC50
[5] = NCI-H146, read-out: Cell-Growth Inhibition Test: NCI-H146 Cells IC50 (nM)
[6] = human LSD1 protein, H3K4 (Me1)-biotin-labeled peptide 200 nM, preincubated 30 minutes, read-out: LSD1 inhibitory activity IC50

Row | SMILES | IC50 [1] [nM] | IC50 [2, 4] [nM] | IC50 (human LSD1 protein) [nM] | IC50 [2, 5] [nM] | IC50 [3] [nM] | IC50 (human LSD1 protein; [6]) [nM]
1 | Cn1cc(C(N)=O)c2cc(-c3ccc(C(=O)N4C5CCC4C(N)C5)cc3-c3ccc(C#N)c(F)c3)c(F)cc21 [Example 236, 5-(5-((1S,2S,4R)-rel-2-amino-7-azabicyclo[2.2.1]heptane-7-carbonyl)-4′-cyano-3′-fluoro-[1,1′-biphenyl]-2-yl)-6-fluoro-1-methyl-1H-indole-3-carboxyamide-isomer-X] | 11 | 28.5 | 0.28 | – | – | –
2 | N#Cc1ccc(-c2cc(C(=O)N3C4CCC3C(N)C4)ccc2-c2cc3nnn(CC4(O)CCC4)c3c(C#N)c2F)cc1F [Example 264, 5-(5-((1S,2S,4R)-rel-2-amino-7-azabicyclo[2.2.1]heptane-7-carbonyl)-4′-cyano-3′-fluoro-[1,1′-biphenyl]-2-yl)-6-fluoro-1-((1-hydroxycyclobutyl)methyl)-1H-benzo[d][1,2,3]triazole-7-carbonitrile-isomer-X] | 0.3 | – | – | 0.96 | 0.84 | –
3 | N#Cc1ccc(-c2cc(C(=O)N3[C@@H]4CC[C@H]3C[C@@H](N)C4)ccc2-c2cc3nnn(CC4(O)CCC4)c3c(C#N)c2F)cc1F [Example 266, 5-(5-((3-endo)-3-amino-8-azabicyclo[3.2.1]octane-8-carbonyl)-4′-cyano-3′-fluoro-[1,1′-biphenyl]-2-yl)-6-fluoro-1-((1-hydroxycyclobutyl)methyl)-1H-benzo[d][1,2,3]triazole-7-carbonitrile] | 1.85 | – | – | 17.5 | 4.63 | –
4 | Cc1c(F)c(-c2ccc(C(=O)N3[C@@H]4CC[C@H]3C[C@@H](N)C4)cc2-c2ccc(C#N)c(F)c2)cc2nnn(CC3(O)CCC3)c12 [Example 272, 5′-((3-endo)-3-amino-8-azabicyclo[3.2.1]octane-8-carbonyl)-3-fluoro-2′-(6-fluoro-1-((1-hydroxycyclobutyl)methyl)-7-methyl-1H-benzo[d][1,2,3]triazol-5-yl)-[1,1′-biphenyl]-4-carbonitrile] | 0.81 | – | – | 3.17 | 1.52 | –
5 | CC(C)(O)Cn1nnc2cc(-c3ccc(C(=O)N4[C@@H]5CC[C@H]4C[C@@H](N)C5)cc3-c3ccc(C#N)c(F)c3)c(F)c(Br)c21 [Example 275, 5′-((3-endo)-3-amino-8-azabicyclo[3.2.1]octane-8-carbonyl)-2′-(7-bromo-6-fluoro-1-(2-hydroxy-2-methylpropyl)-1H-benzo[d][1,2,3]triazol-5-yl)-3-fluoro-[1,1′-biphenyl]-4-carbonitrile] | 0.59 | – | – | 1.78 | 0.99 | –
6 | CC(C)(O)Cn1nnc2cc(-c3ccc(C(=O)N4[C@@H]5CC[C@H]4C[C@@H](N)C5)cc3-c3ccc(C#N)c(F)c3)c(F)c(C3CC3)c21 [Example 281, 5′-((3-endo)-3-amino-8-azabicyclo[3.2.1]octane-8-carbonyl)-2′-(7-cyclopropyl-6-fluoro-1-(2-hydroxy-2-methylpropyl)-1H-benzo[d][1,2,3]triazol-5-yl)-3-fluoro-[1,1′-biphenyl]-4-carbonitrile] | 8.5 | – | – | 32.3 | 23.9 | –
7 | Cc1ccc(-c2ccc(CN3C4CCC3C(N)C4)cc2-c2ccc(C#N)c(F)c2)c(F)c1 [Example 283, 5′-(((1S,2S,4R)-rel-2-amino-7-azabicyclo[2.2.1]heptan-7-yl)methyl)-2″,3-difluoro-4″-methyl-[1,1′:2′,1″-terphenyl]-4-carbonitrile-isomer-X] | 2.1 | – | – | 11.1 | 0.79 | –
8 | CC(C)(O)Cn1nnc2cc(-c3ccc(CN4C5CCC4C(N)C5)cc3-c3ccc(C#N)c(F)c3)c(F)c(F)c21 [Example 285, 5′-(((1S,2S,4R)-rel-2-amino-7-azabicyclo[2.2.1]heptan-7-yl)methyl)-2′-(6,7-difluoro-1-(2-hydroxy-2-methylpropyl)-1H-benzo[d][1,2,3]triazol-5-yl)-3-fluoro-[1,1′-biphenyl]-4-carbonitrile-isomer-X dihydrochloride] | 0.09 | – | – | 0.49 | 0.046 | –
9 | N#Cc1ccc(-c2cc(CN3C4CCC3C(N)C4)ccc2-c2cc3nnn(CC4(O)CCC4)c3c(Cl)c2F)cc1F [Example 286, 5′-(((1S,2S,4R)-rel-2-amino-7-azabicyclo[2.2.1]heptan-7-yl)methyl)-2′-(7-chloro-6-fluoro-1-((1-hydroxycyclobutyl)methyl)-1H-benzo[d][1,2,3]triazol-5-yl)-3-fluoro-[1,1′-biphenyl]-4-carbonitrile-isomer-X dihydrochloride] | 0.083 | – | – | 0.17 | 0.036 | –
10 | CCC(O)(CC)Cn1nnc2cc(-c3ccc(CN4C5CCC4C(N)C5)cc3-c3ccc(C#N)c(F)c3)c(F)c(Cl)c21 [Example 288, 5′-(((1S,2S,4R)-rel-2-amino-7-azabicyclo[2.2.1]heptan-7-yl)methyl)-2′-(7-chloro-1-(2-ethyl-2-hydroxybutyl)-6-fluoro-1H-benzo[d][1,2,3]triazol-5-yl)-3-fluoro-[1,1′-biphenyl]-4-carbonitrile-isomer-X dihydrochloride] | 0.22 | – | – | 1.29 | 0.062 | –
11 | CC(C)(O)Cn1ccc2cc(-c3ccc(CN4C5CCC4C(N)C5)cc3-c3ccc(C#N)c(F)c3)c(F)cc21 [Example 289, 5′-(((1S,2S,4R)-rel-2-amino-7-azabicyclo[2.2.1]heptan-7-yl)methyl)-3-fluoro-2′-(6-fluoro-1-(2-hydroxy-2-methylpropyl)-1H-indol-5-yl)-[1,1′-biphenyl]-4-carbonitrile-isomer-X dihydrochloride] | 0.094 | – | – | 0.97 | 0.038 | –
12 | CC(C)(O)Cc1ccc(-c2ccc(CN3CC[C@H](N)C3)cc2-c2ccc(C#N)c(F)c2)c(F)c1 [Example 291, (S)-5′-((3-aminopyrrolidin-1-yl)methyl)-2″,3-difluoro-4″-(2-hydroxy-2-methylpropyl)-[1,1′:2′,1″-terphenyl]-4-carbonitrile dihydrochloride] | 4.65 | – | – | 10.4 | 1.21 | –
13 | Cc1ccc(-c2ccc(C(C)N3C4CCC3C(N)C4)cc2-c2ccc(C#N)c(F)c2)c(F)c1 [Example 292, 5′-(1-((1S,2S,4R)-rel-2-amino-7-azabicyclo[2.2.1]heptan-7-yl)ethyl)-2″,3-difluoro-4″-methyl-[1,1′:2′,1″-terphenyl]-4-carbonitrile-isomer-X dihydrochloride] | 3.29 | – | – | 10.3 | 0.91 | –
14 | CCC(O)(CC)Cn1nnc2cc(-c3ccc(CN4C5CCC4C(N)C5)cc3-c3ccc(C#N)c(F)c3)c(F)c(F)c21 [Example 293, 5′-(((1S,2S,4R)-rel-2-amino-7-azabicyclo[2.2.1]heptan-7-yl)methyl)-2′-(1-(2-ethyl-2-hydroxybutyl)-6,7-difluoro-1H-benzo[d][1,2,3]triazol-5-yl)-3-fluoro-[1,1′-biphenyl]-4-carbonitrile-isomer-X dihydrochloride] | 0.22 | – | – | 0.08 | 0.081 | –
15 | CC(C)(O)Cn1nnc2cc(-c3ccc(CN4C5CCC4C(N)C5)cc3-c3ccc(C#N)c(F)c3)c(F)c(Br)c21 [Example 294, 5′-(((1S,2S,4R)-rel-2-amino-7-azabicyclo[2.2.1]heptan-7-yl)methyl)-2′-(7-bromo-6-fluoro-1-(2-hydroxy-2-methylpropyl)-1H-benzo[d][1,2,3]triazol-5-yl)-3-fluoro-[1,1′-biphenyl]-4-carbonitrile-isomer-X dihydrochloride] | 0.055 | – | – | 4.05 | 0.04 | –
16 | CCC(O)(CC)Cn1nnc2cc(-c3ccc(CN4C5CCC4C(N)C5)cc3-c3ccc(C#N)c(F)c3)c(F)c(Br)c21 [Example 295, 5′-(((1S,2S,4R)-rel-2-amino-7-azabicyclo[2.2.1]heptan-7-yl)methyl)-2′-(7-bromo-1-(2-ethyl-2-hydroxybutyl)-6-fluoro-1H-benzo[d][1,2,3]triazol-5-yl)-3-fluoro-[1,1′-biphenyl]-4-carbonitrile-isomer-X dihydrochloride] | 0.066 | – | – | 0.24 | 0.049 | –
17 | CC(C)(O)Cn1ncc2cc(-c3ccc(CN4CC5CNCC5C4)cc3-c3ccc(C#N)c(F)c3)c(F)cc21 (centres unmarked) [Example 297, 3-fluoro-2′-(6-fluoro-1-(2-hydroxy-2-methylpropyl)-1H-indazol-5-yl)-5′-((hexahydropyrrolo[3,4-c]pyrrol-2(1H)-yl)methyl)-[1,1′-biphenyl]-4-carbonitrile dihydrochloride] | 3.8 | 8.26 | – | – | 2.68 | 0.4
18 | CC(C)(O)Cn1ncc2cc(-c3ccc(CN4CC5(CCCNC5)C4)cc3-c3ccc(C#N)c(F)c3)c(F)cc21 [Example 298, 5′-((2,6-diazaspiro[3.5]nonan-2-yl)methyl)-3-fluoro-2′-(6-fluoro-1-(2-hydroxy-2-methylpropyl)-1H-indazol-5-yl)-[1,1′-biphenyl]-4-carbonitrile dihydrochloride] | 1.72 | 1 | – | – | 0.46 | 0.2
